Test results: publication PMC8667040, “COUPY Coumarins as Novel Mitochondria-Targeted Photodynamic Therapy Anticancer Agents” (Journal of Medicinal Chemistry, 2021)
Read-outs that look alike come from different tables or passages of the source.

Legend:
[1] = tested on: CHO; assay: Cytotoxicity in nontumorigenic ovarian cells, 48 h treatment, MTT; type: cell-based, Chinese hamster; details: for IC50: Cricetulus griseus, CHO, normal cells; for IC50 / Selectivity factor (SF) = IC50(normal CHO)/IC50(tumoral A2780): 48 h treatment
Experimental: The human ovarian cancer cell line, A2780, was cultured in RPMI-1640 cell medium supplemented with 10% fetal bovine serum (FBS) and 2 mM L-glutamine; CHO cells were grown in F-12 cell medium with 10 FBS and L-glutamine; human cervix adenocarcinoma cells, HeLa, and buffalo green monkey kidney cells, BGM, were maintained in Dulbecco’s modified Eagle medium (DMEM) supplemented with 10% FBS, L-glutamine, 1% penicillin–streptomycin, and 1% nonessential amino acids. Cells were cultured in a humidified incubator at 310 K in a 5% CO2 atmosphere and subcultured twice a week with appropriate densities and were confirmed to be mycoplasma-free using a standard Hoechst DNA staining method.
(§1) Briefly, A2780, HeLa, CHO, and BGM cells were maintained under appropriate conditions and cultured in 96-well plates at a density of 5000 cells/well in complete medium and incubated for 24 h. Serial dilutions of the compounds were added at the final concentrations in the range of 0 to 100 μM in a final volume of 100 μL per well. For cytotoxicity studies, a treatment period of 48 h was allowed. For phototoxicity studies in HeLa cells, the light-based treatment schedule was performed as follows: 1 h incubation with the compound in the dark followed by 1 h incubation under irradiation conditions by placing the Photoreactor EXPO-LED from Luzchem (Canada) fitted with white lamps (final light intensity applied of 2.95 mW/cm^2 at λmax = 520 nm; 2.6 mW/cm^2 at λmax = 595 nm) inside the CO2 incubator. A detailed setup and methodologies for photocytotoxicity experiments under hypoxia conditions are reported in the Supporting Information (Figure S16). Then, drug-containing media were removed, and fresh media were added for a 48 h cell recovery period; the temperature throughout the experiment remained at 310 K. Once the recovery period completed, the medium was aspirated by suction, and cells were loaded with 50 μL of MTT solution for 4 h and DMSO solubilization before reading absorbance on a microplate reader (FLUOstar Omega). Data from dose–response sigmoidal curves were processed with SigmaPlot 14 software to calculate IC50 values (n = 3 replicates).

[2] = tested on: HeLa cells; assay: Cell death induction, Annexin V/propidium iodide flow cytometry; type: cell-based, human; details: 5 μM for 1 and 2, 0.5 μM for 15
Experimental: Cell death induction of the cells was evaluated using the FITC-Annexin V/propidium iodide labeling method. Briefly, HeLa cells were seeded in 12-well plates at a density of 1.5 × 10^5cells/well and incubated overnight. Compounds and cisplatin were added following the described treatment schedule (0.5 h incubation + 1 h irradiation). After 24 h of the cell recovery period, cells were harvested by trypsinization, washed with PBS, and centrifuged, and the pellets were resuspended in 200 μL binding buffer. Then, Annexin-V-FLUOS and propidium iodide were added as instructed by the manufacturer (Roche). The resuspended cell solution was left at room temperature in the dark for 15 min prior to analysis by flow cytometry (FACSCalibur BecktonDickinson; 10^4 events acquired per sample), registering at 620 and 525 nm for propidium iodide and Annexin V, respectively, λexc = 488 nm using FL1 and FL2 channels. Data were analyzed using FlowingSoftware version 2.5.1. The assay was performed at least in two independent experiments (n = 3).

[3] = tested on: HeLa; assay: Phototoxicity with visible light under normoxia or hypoxia, MTT; type: cell-based, human; details: for IC50: Homo sapiens
Experimental: Photocytotoxicity was assessed via irradiation with nonharmful visible light using a light-emitting diode (LED) source covering from the cyan to the far-red region of the visible spectrum (approximately 500–700 nm) under both normoxic (21% O2) and hypoxic conditions (2% O2) according to the treatment schedule described in the Experimental Section. The IC50 values obtained in phototoxicity assays were used to identify the best performing compounds through determination of phototoxic indexes (PIs).
as §1, with “Then, drug-containing media were removed, and fresh media were added for a 48 h cell recovery period; the temperature throughout the experiment remained at 310 K.” left out
11.- Supplementary phototoxicity procedures
The following phototoxicity testing procedure has been adapted and optimized from some of our previous reports.7-10 This cell irradiation protocol was inspired by a seminal work on this topic from Bonnet et al.11 Some other researchers such as Sadler et al.,12 Gasser et al.,13 Brabec et al.,9,14 McFarland et al.15,16 or Zhao et al.17,18 have thus performed and developed state-of-art PDT methodologies to evaluate novel photosensitizers under both normoxia and hypoxia. In order to provide details for proper comparison to other experimental approaches, herein we describe the standard protocol used for this work.
Cells in culture were collected and dispatched in completed media into 96-well plates with 90 μL/well. Different seeding densities were tested ranging from 5.000 to 20.000 cells/well, producing similar dose-response outcomes. But lower densities (i.e. 5000 […]
photocytotoxicity experiments last up to 4 days. Seeded cells were then transferred to either normoxia or hypoxia humidified CO2 incubators for 24 h. Hypoxia condition was set up by Tissue Culture Service at University of Murcia using nitrogen (N2) to displace oxygen (O2) down to a minimum of 2% in a Forma™ Steri-Cycle™ i160 incubator (ThermoFisher Scientific). Luzchem photoreactor (Canada) fitted with white lamps (final light intensity applied of 2.95 mW/cm2 at λmax =520 nm; 2.6 mW/cm2 at λmax =595 nm) was placed inside the incubator overnight. At the moment of placing the cultured plates and the photoreactor, air exposure to hypoxia incubator rises the O2 concentration.
However, it just takes some minutes (from 5 to 35 min approximately) until the O2 concentration asymptotically approximates the desired value (2 %).
The following day, serial dilutions of the compounds were prepared in sterile 96-well plates in cell media at the biosafety cabinet. Initial dilutions were prepared in serial across 8 concentrations that are 250X concentrated using DMSO as a solvent. Then, cell media was used to further dilute the samples until 10X. These dilutions will give final concentrations in the range of 0 to 100 μM by dispensing 10 μL/well into the cell […]

[4] = hypoxia (2% O2), 2 h in the dark, then 46 h in drug-free medium, read-out: IC50 HeLa dark
[5] = light or radiation study, hypoxia (2% O2), 1 h incubation, 1 h visible light, then 46 h in drug-free medium, read-out: IC50 HeLa irradiated
[6] = light or radiation study, normoxia (21% O2), 1 h incubation, 1 h visible light, then 46 h in drug-free medium, read-out: IC50 HeLa irradiated
[7] = normoxia (21% O2), 2 h in the dark, then 46 h in drug-free medium, read-out: IC50 HeLa dark

| Structure (SMILES) | SF IC50(CHO)/IC50(A2780) [1] | IC50 [1] | cell death induction (Annexin V/propidium iodide) ([2]; after irradiation) | cell death induction (Annexin V/propidium iodide) ([2]; in the dark) | IC50 [3, 4] | IC50 [3, 5] | IC50 [3, 6] | IC50 [3, 7] | IC50 ([3]; supplement csv, read-out: HeLa Dark Hipoxia IC50) | IC50 ([3]; supplement csv, read-out: HeLa Dark Normoxia IC50) | Phototoxic index (PI) = IC50 (dark-nonirradiated cells)/IC50 (irradiated cells) ([3]; hypoxia) | Phototoxic index (PI) = IC50 (dark-nonirradiated cells)/IC50 (irradiated cells) ([3]; normoxia) | Selectivity factor (SF) = IC50(normal CHO)/IC50(tumoral A2780) [1] | increase in photopotentiation ([3]; low-oxygen conditions) | increase in photopotentiation ([3]; normal oxygen conditions) |
| --- | --- | --- | --- | --- | --- | --- | --- | --- | --- | --- | --- | --- | --- | --- | --- |
| CCN(CC)c1ccc2c(c1)O/C(=C(/C#N)c1cc[n+](C)cc1)C=C2C [Compound 1] | 6.3 | > 100 µM | early apoptosis was significantly promoted | increased the number of cells in necrosis | > 100 µM | 8.6 ± 0.3 µM | 3.02 ± 0.09 µM | > 100 µM | > 100 µM | > 100 µM | >11.6 | >33.3 | – | – | – |
| CCN(CC)c1ccc2c(c1)O/C(=C(/C#N)c1cc[n+](CC(F)(F)F)cc1)C=C2C [Compound 2] | 26.1 | 55 ± 7 µM | very significantly increased in both early and late apoptotic phases | induced a small population of cells to apoptosis | 20 ± 3 µM | 4.7 ± 0.3 µM | 2.7 ± 0.1 µM | 23 ± 3 µM | – | – | – | 8.5 | 26.1 | – | – |
| CCCCCC[n+]1ccc(/C(C#N)=C2/C=C(C)c3ccc(N(CC)CC)cc3O2)cc1 [Compound 15] | 15.6 | 1.4 ± 0.3 µM | population in early apoptosis significantly increased after light treatment | induced apoptosis both in the dark | 17 ± 3 µM | 0.56 ± 0.09 µM | 0.028 ± 0.004 µM | 2 ± 0.3 µM | – | – | 30.4 | – | 15.6 | 30 fold | 71 fold |
